In paper PMC10180349 (Molecules, 2023):

Key:
MDA-MB-231 cells [1] = assay: Annexin V-FITC/PI flow cytometry apoptosis assay; format: cell-based, Human; conditions: 48 h
Procedure: Cell apoptosis analysis was performed according to the manufacturer’s protocol of the Annexin V-FITC Detection kit (Beyotime, Shanghai, China). […] Finally, the samples were tested by flow cytometer (BD FACSCelesta) and analyzed using FlowJo Software (Tree Star Inc., Ashland, OR, USA). The PTX-treated group was used as a positive control.

MDA-MB-231 cells [2] = assay: Cell cycle analysis (PI, flow cytometry); format: cell-based, Human; conditions: 48 h
Procedure: Cell cycle assay was performed using the DNA Content Quantitation Assay (Solarbio, Beijing, China). […] Then, the fixed cells were incubated with RNase A solution at 37 °C for 30 min and stained with PI in the dark for 30 min at 4 °C. The red fluorescence was detected using a flow cytometer (BD FACSCalibur) at 488 nm and analyzed by FlowJo Software (Tree Star Inc, Ashland, OR, USA). The PTX-treated group was set as a positive control.

[3] = Acute-toxicity experiment, single dose via tail vein
[4] = Solubility experiment in water; conditions: for appearance of sample in water (solubility by photograph): diluted to 5 mg/mL by water
[5] = test system: MDA-MB-231 xenograft tumor tissue; assay: TUNEL assay of tumor slides; format: in vivo, Female BALB/c nude mice; conditions: PTX-TTHA 6.87-13.73 mg/kg q3d; PTX 10 mg/kg q7d
Procedure: The tumor slides of MDA-MB-231 xenograft mice were deparaffinized and rehydrated as per the method described above. Then, the TUNEL assay was performed according to the manufacturer’s instructions. Briefly, slides were permeabilized with proteinase K for 20 min and blocked with 3% H2O2 for 10 min. After washing, slides were incubated with Biotin labeling solution for 1 h, and the nucleus was counterstained with DAPI for 1 min. The localized red fluorescence of the apoptotic cells was visualized by fluorescence microscopy. Two experienced pathologists randomly selected 10 (×200) fields for every slide and then analyzed them. The percentage of TUNEL-positive cells among total cells was semi-quantitatively measured with the Image-J software.

MDA-MB-231 [6] = assay: cells; conditions: Homo sapiens, MDA-MB-231, 48 h
[7] = test system: microtubules in MDA-MB-231 cells; assay: Immunofluorescence staining of microtubules (α-tubulin antibody); format: cell-based, Human; conditions: MDA-MB-231, 0.1 nM, 48 h
Procedure: Cells were fixed with 4% paraformaldehyde for 20 min, permeabilized with 0.1%Triton X-100 for 5 min, and blocked with 1% BSA for 1.5 h. Next, cells were incubated with α-tubulin antibody (1:400 Abcam, AB52866) at 4 °C overnight, followed by the Alexa Fluor 488 conjugated goat anti-rabbit IgG secondary antibody (1:300, ZF-0511, Zhongshan Goldenbridge Biotechnology, Beijing, China). Finally, nuclei were stained with DAPI for 4 min. Stained cells were observed using a laser confocal microscope (LSM700; Zeiss, Gottingen, Germany). The PTX-treated group was used as a positive control.

MCF-7 [8] = assay: cells; conditions: Homo sapiens, MCF7, 48 h
[9] = cited from earlier work
physchem = conditions: water
MDA-MB-231 cells [10] = assay: Transmission electron microscopy of treated cells; format: cell-based, Human; conditions: MDA-MB-231, 0.1 nM, 48 h
Procedure: Ultrathin sections were isolated, stained with uranyl acetate and lead citrate for 10 min, and finally observed through the Hitachi H-7650 transmission electron microscope (Tokyo, Japan). The PTX-treated group was used as a positive control.

4T1 [11] = assay: cells; conditions: Mus musculus, 4T1, 48 h
MCF-7 [12] = conditions: SI = IC50 MCF 10A/IC50 MCF-7, 48 h
caspase-3 = assay: Caspase-3 activity assay in cell lysates; format: cell-based, Human; conditions: MDA-MB-231, 0.1 and 1 nM, 48 h
Procedure: The activity of caspase-3 was performed according to the manufacturer’s protocol of the Caspase-3 Activity Assay Kit (Beyotime, Shanghai, China). […] Then, the absorbance was measured at 405 nm using a Microplate Reader (Thermo 3001, Vantaa, Finland), and the protein concentration was obtained via Bradford assay. Data were normalized for the protein content of each supernatant and expressed as the relative value compared to the control. The PTX-treated group was used as a positive control.

[13] = Organ-body indices and signs of toxicity in the xenograft model; conditions: q3d, 3 weeks
4T1 [14] = conditions: SI = IC50 MCF 10A/IC50 4T1, 48 h
MDA-MB-231 [15] = conditions: SI = IC50 MCF 10A/IC50 MDA-MB-231, 48 h
Ki-67 = Ki-67 immunohistochemical staining of tumor slides; format: in vivo, Female BALB/c nude mice; conditions: 6.87, 10.30, 13.73 mg/kg q3d, p < 0.01
Procedure: The tumor slides of MDA-MB-231 xenograft mice were deparaffinized and rehydrated as per the method described above. Next, slides were boiled in citrate antigen retrieval solution for 2 min and then blocked with 3% H2O2 for 10 min. After washing, slides were incubated with primary Ki-67 antibody (1:400, Abcam AB15580) at 4 °C overnight, followed by incubation with the goat anti-rabbit HRP-conjugated secondary antibody (1:500) for 1 h at RT. Finally, slides were stained with DAB chromogenic reagent and hematoxylin. Images were visualized using a Zeiss microscope (Carl Zeiss Meditec AG, Jena, Germany). Three separate visual fields were randomly selected from each slice. The percentage of the positive area was semi-quantitatively analyzed with the Image-J software.

MCF 10A = format: cell-based; conditions: Homo sapiens, 48 h
[16] = test system: MDA-MB-231 xenograft breast tumor model; assay: In vivo antitumor assay; conditions: medium dose 10.30 mg/kg (MPTX-TTHA), q3d, tail vein, 21 days
cleaved caspase-3 = assay: Western blot of xenograft tumor tissues; format: in vivo, Female BALB/c nude mice; conditions: 6.87, 10.30, 13.73 mg/kg q3d, dose-dependent, p < 0.01
Procedure: (§1) The removed tumor tissues were cut into pieces and homogenized in RIPA lysis buffer (Cat#P0013B; Beyotime, Shanghai, China) containing PMSF protease inhibitor (Cat#ST506; Beyotime, Shanghai, China) (RIPA: PMSF = 100:1) using a glass homogenizer on ice for 30 min. The lysates were harvested by centrifugation (12,000 rpm) at 4 °C for 5 min. The protein concentrations were measured by BCA Protein Assay Kit (Beyotime, Shanghai, China) and boiled at 95 °C for 5 min. Then, equal amounts of proteins (30 μg) from five groups were separated by 10% SDS-PAGE and transferred to PVDF membranes (EMD Millipore, Billerica, MA, USA). The membranes were blocked with 5% non-fat milk for 2 h and washed with TBST buffer. Next, membranes were incubated with primary antibodies (β-actin, cleaved caspase-3, Bax, Bcl-2) at a dilution of 1:1000 at 4 °C overnight, followed by the goat anti-rabbit HRP-conjugated secondary antibody (1:5000) for 2 h at room temperature. β-actin was used as an internal control. Protein bands were visualized by a chemiluminescence detection system (Bio-Rad, Hercules, CA, USA) and quantitated using the Image-J software.

Bax = assay: Western blot of xenograft tumor tissues; format: in vivo, Female BALB/c nude mice; conditions: 6.87, 10.30, 13.73 mg/kg q3d, dose-dependent, p < 0.01
Procedure: as §1

Bcl-2 = assay: Western blot of xenograft tumor tissues; format: in vivo, Female BALB/c nude mice; conditions: 6.87, 10.30, 13.73 mg/kg q3d, dose-dependent, p < 0.01
Procedure: as §1

CC(=O)O[C@H]1C(=O)[C@@]2(C)[C@H]([C@H](OC(=O)c3ccccc3)[C@]3(O)C[C@H](OC(=O)[C@H](O)[C@@H](NC(=O)c4ccccc4)c4ccccc4)C(C)=C1C3(C)C)[C@]1(OC(C)=O)CO[C@@H]1C[C@@H]2O [PTX, Paclitaxel, reference compound]
cell apoptosis rate (MDA-MB-231 cells [1]; 0.1 nM, control 2.17% ± 0.76%): 29.57% ± 3.31 | cells in G2/M phase (MDA-MB-231 cells [2]; 0.1 nM, control 8.74 ± 0.60%): 24.22 ± 0.70% | ALT, AST, Scr, WBC and NEUT values compared with controls ([3]; 20 mg/kg CrEL paclitaxel, Taxol (PTX), day 3, p < 0.001): significantly altered | appearance of sample in water (solubility by photograph) [4]: almost insoluble in water | TUNEL signal of apoptotic cells in tumor tissue [5]: strong red fluorescent signal | IC50 (MDA-MB-231 [6]): 8.68 ± 0.75 nM | microtubule fluorescence intensity compared with the control group [7]: enhanced fluorescence intensity of microtubules | IC50 (MCF-7 [8]): 9.99 ± 0.94 nM | solubility in water [9]: 0.3 to 0.5 µg/mL | solubility (physchem): < 0.7 µg/mL | morphological changes of apoptosis (TEM) (MDA-MB-231 cells [10]): remarkable cellular apoptosis-related characteristics were observed | IC50 (4T1 [11]): 9.45 ± 1.34 nM

CC(=O)O[C@H]1C(=O)[C@@]2(C)[C@H]([C@H](OC(=O)c3ccccc3)[C@]3(O)C[C@H](OC(=O)[C@H](OC(=O)CN(CCN(CCN(CCN(CC(=O)O)CC(=O)O)CC(=O)O)CC(=O)O)CC(=O)O)[C@@H](NC(=O)c4ccccc4)c4ccccc4)C(C)=C1C3(C)C)[C@]1(OC(C)=O)CO[C@@H]1C[C@@H]2O [PTX-TTHA, 3,6,9,12-Tetraazatetradecanedioic acid, 3,6,9,12-tetrakis(carboxymethyl)-1-[2-(benzoylamino)-1-[[[6,12b-bis(acetyloxy)-12-(benzoyloxy)-2a,3,4,4a,5,6,9,10,11,12,12a,12b-dodecahydro-4,11-dihydroxy-4a,8,13,13-tetramethyl-5-oxo-7,11-methano-1H-cyclodeca [3, 4]benz [1,2-b]oxet-9-yl]oxy]carbonyl]-2-phenylethyl] ester]
cell apoptosis rate (MDA-MB-231 cells [1]; 0.1 nM, control 2.17% ± 0.76%): 30.4% ± 3.61 | cell apoptosis rate (MDA-MB-231 cells [1]; 1 nM): 50.5% ± 2.19 | selectivity index (SI) (MCF-7 [12]): 23.19 | cells in G2/M phase (MDA-MB-231 cells [2]; 0.1 nM, control 8.74 ± 0.60%): 23.06 ± 0.92% | cells in G2/M phase (MDA-MB-231 cells [2]; 1 nM): 51.40% ± 0.45 | caspase-3 activity compared with the control group (caspase-3): significantly activated | signs of toxicity during treatment ([13]; 6.87, 10.30, 13.73 mg/kg, tail vein): No noticeable signs of toxicity were observed | organ-body index, Heart ([13]; HPTX-TTHA, 13.73 mg/kg): 5.56 ± 0.49 mg/g | organ-body index, Kidney ([13]; HPTX-TTHA, 13.73 mg/kg): 16.09 ± 0.50 mg/g | organ-body index, Liver ([13]; HPTX-TTHA, 13.73 mg/kg): 63.73 ± 5.63 mg/g | organ-body index, Lung ([13]; HPTX-TTHA, 13.73 mg/kg): 7.28 ± 0.73 mg/g | organ-body index, Spleen ([13]; HPTX-TTHA, 13.73 mg/kg): 6.20 ± 0.65 mg/g | organ-body index, Heart ([13]; LPTX-TTHA, 6.87 mg/kg): 5.56 ± 0.63 mg/g | organ-body index, Kidney ([13]; LPTX-TTHA, 6.87 mg/kg): 16.03 ± 0.49 mg/g | organ-body index, Liver ([13]; LPTX-TTHA, 6.87 mg/kg): 63.63 ± 4.54 mg/g | organ-body index, Lung ([13]; LPTX-TTHA, 6.87 mg/kg): 7.29 ± 0.79 mg/g | organ-body index, Spleen ([13]; LPTX-TTHA, 6.87 mg/kg): 6.35 ± 0.51 mg/g | organ-body index, Heart ([13]; MPTX-TTHA, 10.30 mg/kg): 5.49 ± 0.15 mg/g | organ-body index, Kidney ([13]; MPTX-TTHA, 10.30 mg/kg): 16.05 ± 0.47 mg/g | organ-body index, Liver ([13]; MPTX-TTHA, 10.30 mg/kg): 63.20 ± 5.17 mg/g | organ-body index, Lung ([13]; MPTX-TTHA, 10.30 mg/kg): 7.16 ± 0.61 mg/g | organ-body index, Spleen ([13]; MPTX-TTHA, 10.30 mg/kg): 6.16 ± 1.05 mg/g | histopathology of main organs (H&E) ([3]; 138.6 mg/kg, single dose): No histological alterations were observed | body weight change compared with controls ([3]; 138.6 mg/kg, single dose, day 2, normal thereafter): slight weight loss | blood biochemical and hematological test index values compared with control ([3]; 138.6 mg/kg, single dose, day 3 and day 14): no significant differences | toxic signs after administration ([3]; 138.6 mg/kg, single dose, tail vein, 14 days): none of these toxic signs were observed | acute toxicity on vital organs, hematological, and biochemical parameters ([3]; limit dose 138.6 mg/kg, i.v.): no sign of acute toxicity | selectivity index (SI) (4T1 [14]): 21.36 | selectivity index (SI) (MDA-MB-231 [15]): 28.97 | Ki-67 expression in tumor tissues compared with the control group (Ki-67): significantly reduced | IC50 (MCF 10A): 367 ± 8.2 nM | appearance of sample in water (solubility by photograph) [4]: completely clear | water solubility, fold higher than that of paclitaxel ([4]; water): about 7140 fold | TUNEL signal of apoptotic cells in tumor tissue [5]: strong red fluorescent signal | IC50 (MDA-MB-231 [6]): 12.7 ± 1.34 nM | tumor inhibition rate [16]: ~70.51% | microtubule fluorescence intensity compared with the control group [7]: enhanced fluorescence intensity of microtubules | cleaved caspase-3 expression level in tumor compared with the control group (cleaved caspase-3): significantly upregulated | Bax expression level in tumor compared with the control group (Bax): significantly upregulated | Bcl-2 expression level in tumor compared with the control group (Bcl-2): significantly downregulated | IC50 (MCF-7 [8]): 15.8 ± 1.04 nM | solubility (physchem; thermodynamic from solid): > 5000 µg/mL | morphological changes of apoptosis (TEM) (MDA-MB-231 cells [10]): remarkable cellular apoptosis-related characteristics were observed | IC50 (4T1 [11]): 17.2 ± 1.96 nM
